Assay results as given in patent US20110020312A1, “METHODS FOR TREATMENT OF METABOLIC DISORDERS USING EPIMETABOLIC SHIFTERS, MULTIDIMENSIONAL INTRACELLULAR MOLECULES, OR ENVIRONMENTAL INFLUENCERS” (priority 2009, published 2011).

Test system: Lactate Dehydrogenase (LDH)
Test: Western blot, Lactate Dehydrogenase levels
Assay type: cell-based, human
Protocol: The samples were processed and run on a 4-12% Bis-Tris Novex NuPAGE gel as described above. The gels were run, transferred and stained essentially as described above.
After transfer each blot was dried for 15-20 minutes, activated with methanol for 5 seconds, washed with water for 5 minutes, and TBST for 15 minutes. The blots were blocked for 1 hour with 5% blocking reagent in TBS-T at room temperature and then washed 3 times with TBS-T (1×-15′; 2×5′ each) and probed with the primary antibody for Lactate Dehydrogenase (abcam ab2101; polyclonal) in 5% BSA (at 1:1000 dilutions) by incubation overnight at 4 deg C. with shaking. After the overnight incubation with primary antibody for Lactate Dehydrogenase, the blots were washed 3 times with TBS-T (1×-15′; 2×5′ each) and probed with the secondary antibody (rabbit antigoat; 1:10,000 dilution) for 1 h at room temperature. After 1 h of incubation with secondary antibodies, the blots were washed 3 times with TBS-T (1×-15′; 2×5′ each) and then incubated with ECF reagent for 5 mins and then each blot scanned with 5100 Fuji Laser scanner at 25 uM resolution, 16 bit, green laser, at 400V and at 500 V.
The PACA2 samples were processed and the gels were run, transferred, stained and scanned essentially as described above.
The levels of LDH and PDH were determined by probing the blots successively with primary antibodies for LDH and PDH, essentially as described above.
The above blots were stripped by incubating for 30 minutes with methanol, followed by two 10 minute washes with TBS-T, then 30 minutes of incubation with Stripping buffer at 50 deg C., and followed by two washes with 100 ml or more of TBS-T for 30′ each. The blots were scanned in laser scanner to check for complete stripping. The blots were activated with methanol for 5 seconds, washed with water for 5 minutes, and TBST for 15 minutes. The blots were blocked for 1 hour with 5% blocking reagent in TBS-T at room temperature and then washed 3 times with TBS-T (1×-15′; 2×5′ each) and probed with the primary antibody for LDH or Bik in 5% BSA in TBS-T by incubation overnight at 4 deg C. with gentle shaking. The primary antibody for LDH was from Abcam ab2101; antigoat; at 1:1000 dilution. The primary antibody for Bik was from Cell Signaling #9942; antirabbit; at 1:1000 dilution. After incubation with primary antibodies, the membranes were washed 3 times with TBS-T (1×-15′; 2×5′ each) and probed with the secondary antibody (LDH antigoat; Jackson Laboratories) and Bik antirabbit; 1:10,000 dilution) for 1 h on the orbital tilting shaker at room temperature. After 1 h of incubation, the blots were washed 3 times with TBS-T (1×-15′; 2×5′ each) and incubated with ECF reagent for 5 minutes and then each blot scanned with 5100 Fuji Laser scanner at 25 uM resolution, 16 bit, green laser, at 400V and at 500 V.
The above blots were stripped by incubating for 30 minutes with methanol, followed by two 10 minute washes with TBS-T, then 30 minutes of incubation with stripping buffer at 50 deg C., and followed by two washes with 100 ml or more of TBS-T for 30′ each. The blots were activated with methanol for 5 seconds, washed with water for 5 minutes, and TBST for 15 minutes. The blots ere blocked for 1 hour with 5% blocking reagent in TBS-T at room temperature and then washed 3 times with TBS-T (1×-15′; 2×5′ each) and probed with the primary antibody for LDH in 5% BSA or 5% milk by incubation overnight at 4 deg C. with gentle shaking. The primary antibody for LDH 080309b1 (Abcam ab2101; antigoat) was at 1:1000 dilution in 5% BSA. The primary antibody for LDH 080309b2 (Abcam ab2101; antigoat) was at 1:1000 dilution in 5% milk. After incubation with primary antibodies, the membranes were washed 3 times with TBS-T (1×-15′; 2×5′ each) and probed with the secondary antibody (Jackson Immuno Research antigoat; 1:10,000 dilution; 305-055-045) for 1 h. […]

Structure (SMILES): COC1=C(OC)C(=O)C(C/C=C(\C)CC/C=C(\C)CC/C=C(\C)CC/C=C(\C)CC/C=C(\C)CC/C=C(\C)CC/C=C(\C)CC/C=C(\C)CC/C=C(\C)CCC=C(C)C)=C(C)C1=O [Q10, Coenzyme Q10]
- Lactate Dehydrogenase Average Volume as a % (HepG2, 5g24-50, 2 Experiments): 64%
- Lactate Dehydrogenase Average Volume as a % (HepG2, 5g24-100, 2 Experiments): 106%
- Lactate Dehydrogenase Average Volume as a % (HepG2, 5g48-50, 2 Experiments): 112%
- Lactate Dehydrogenase Average Volume as a % (HepG2, 5g48-100, 2 Experiments): 121%
- Lactate Dehydrogenase Normalized Volume (HepG2, 5g-50, 24 h): 7900
- Lactate Dehydrogenase Normalized Volume (HepG2, 5g-50, 48 h): 5188
- Lactate Dehydrogenase Normalized Volume (HepG2, 5g-100, 24 h): 6616
- Lactate Dehydrogenase Normalized Volume (HepG2, 5g-100, 48 h): 7319
- Lactate Dehydrogenase Average Volume as a % (HepG2, 22G24-50, 2 Experiments): 121%
- Lactate Dehydrogenase Average Volume as a % (HepG2, 22G24-100, 2 Experiments): 144%
- Lactate Dehydrogenase Average Volume as a % (HepG2, 22G48-50, 2 Experiments): 95%
- Lactate Dehydrogenase Average Volume as a % (HepG2, 22G48-100, 2 Experiments): 67%
- Lactate Dehydrogenase Normalized Volume (HepG2, 22G-50, 24 h): 7550
- Lactate Dehydrogenase Normalized Volume (HepG2, 22G-50, 48 h): 6173
- Lactate Dehydrogenase Normalized Volume (HepG2, 22G-100, 24 h): 7124
- Lactate Dehydrogenase Normalized Volume (HepG2, 22G-100, 48 h): 9141
- Lactate Dehydrogenase Normalized Volume (PACA2, 5g-50, 24 h): 5068
- Lactate Dehydrogenase Normalized Volume (PACA2, 5g-50, 48 h): 2978
- Lactate Dehydrogenase Normalized Volume (PACA2, 5g-100, 24 h): 3675
- Lactate Dehydrogenase Normalized Volume (PACA2, 5g-100, 48 h): 2396
- Lactate Dehydrogenase Normalized Volume (PACA2, 22G-50, 24 h): 10218
- Lactate Dehydrogenase Normalized Volume (PACA2, 22G-50, 48 h): 2575
- Lactate Dehydrogenase Normalized Volume (PACA2, 22G-100, 24 h): 7158
- Lactate Dehydrogenase Normalized Volume (PACA2, 22G-100, 48 h): 3557
- Lactate Dehydrogenase (LDH) expression (cancer): reduced
- Lactate Dehydrogenase (LDH) expression (normal cells): minimal effect
